Measurements as given in PubChem BioAssay AID1963834 (Molecular Pharmacology Branch, DTP, NCI, 2024).

Test system: 873145-292-R-J1-PDC complex spheroid viability
Test: Anticancer human tumor 873145-292-R-J1-PDC patient-derived renal clear cell carcinoma cell line growth inhibition [POLQ]
Conditions: for IC50: curve of first compound; for viability, T/C: stronger effect = lower value
Experimental: Multicellular complex tumor spheroid response to Polymerase (POL) inhibitors (novobiocin, ART-558, RP6685) in combination with a variety of drugs and investigational agents in selected tumor cell lines
The POL inhibitors (novobiocin, ART-558, and RP6685) were evaluated both individually and in combination with standard of care and investigational anticancer small molecules within a complex spheroid model of solid tumors. . Complex spheroids include a stromal component modeled by human endothelial cells (HUVEC) and fibroblasts modeled by human mesenchymal stem cells (MSCs). The concentration ranges selected for each drug and investigational agent were based upon clinically achievable concentrations if the clinical Cmax of the agent was known.
Compounds. The drugs and investigational agents: novobiocin (NSC847541), ART-558 (NSC835418), RP-6685 (NSC848927), peposertib (NSC802822), ceralasertib (NSC780249), elimusertib (NSC800525), camonsertib (NSC841442), AZD-1390 (NSC803789), olaparib (NSC753686), talazoparib (NSC767125), rucaparib (NSC756644), sotorasib (NSC818433), MRTX-1133 (NSC836407), SN-38 (NSC673596), topotecan (NSC609699), epotoside (NSC141540), doxorubicin (NSC123127), gemcitabine (NSC613327), 5-fluorouracil (NSC19893), paclitaxel (NSC125973), vemurafenib (NSC761431), MSA-2 (NSC828583), SN-011 (NSC837082), adavosertib (NSC754352), prexasertib (NSC758257), carboplatin (NSC241240) and oxaliplatin (NSC266046), were obtained from the National Cancer Institute (NCI) Developmental Therapeutics Program Chemical Repository (21). The FDA-approved anticancer drug set is available from the Developmental Therapeutics Program at https://dtp.cancer.gov/organization/dscb/obtaining/. […] The stock solutions were prepared in dimethyl sulfoxide (DMSO, Sigma-Aldrich, St. Louis, MO, cat. D2650), except for the platinum compounds which were prepared in saline (Quality Biological, Gaithersburg, MD, cat. 114-055-101), at 800-fold the tested concentration and stored at -70 degrees C prior to their use. All drugs and investigational agents were tested over a range starting from a high concentration at or near the clinical Cmax and decreasing in half-log increments. If the clinical Cmax for an agent had not been determined, the highest concentration tested was 10 microM, except for SN-38, which was tested at a high concentration of 1 microM.
Cell Culture. All cells were maintained in an incubator at 37 degrees C and 5% CO2 with 95% humidity. The PDC lines were cultured according to standard operating procedures established by the NCI PDMR (https://pdmr.cancer.gov). Table 3 of the manuscript, lists the cell lines along with the number of the three cell types plated to form the mct-spheroids and media for tumor cell growth. After thawing, all PDC lines, except 997537-175-T-J1-PDC and 415267-285-R-J2-PDC, were cultured in Matrigel-coated flasks prepared with a working solution of 1X Ham's F-12 nutrient mix, without supplementation (Thermo Fisher Scientific, cat. 11765054), 100 U/mL penicillin-streptomycin (Thermo Fisher Scientific, cat. 15140122), and 2.5% Matrigel (Corning Inc., Corning, NY, cat. 354248) for the first three passages. The two PDC lines 997537-175-T-J1-PDC and 415267-285-R-J2-PDC were cultured on uncoated flasks. The 857933-349-R-J2-PDC line was cultured in 6C/Colon 1B media containing advanced DMEM/F-12 (Thermo Fisher Scientific, cat. 12634028), 10 mM HEPES (Thermo Fisher Scientific, cat. 15630080), 1X GlutaMAX supplement (Thermo Fisher Scientific, cat. 35050061), 0.1 mg/mL primocin (InvivoGen, San Diego, CA, cat. ant-pm-2), 10% defined fetal bovine serum, heat inactivated (HyClone Laboratories Inc., Logan, UT, cat. SH30070.03HI), 50% L-WRN conditioned media (ATCC, cat. CRL-3276), 1.25 mM N-Acetyl-L-cysteine (Sigma-Aldrich, cat. A9165), 10 mM nicotinamide (Sigma-Aldrich, cat. N0636), 1X B-27 supplement (Thermo Fisher Scientific, cat. 17504044), 1X N-2 supplement (Thermo Fisher Scientific, cat. […]

[1] = second compound 0.0316 µM, first compound 0.0316 µM
[2] = second compound 0.0316 µM, first compound 0.1 µM
[3] = second compound 0.1 µM, first compound 0.0316 µM
[4] = second compound 0.1 µM, first compound 0.1 µM
[5] = second compound 0.316 µM, first compound 0.0316 µM
[6] = second compound 0.316 µM, first compound 0.1 µM
[7] = second compound 1 µM, first compound 0.0316 µM
[8] = second compound 1 µM, first compound 0.1 µM
[9] = second compound 3.16 µM, first compound 0.0316 µM
[10] = second compound 3.16 µM, first compound 0.1 µM
[11] = second compound 10 µM, first compound 0.0316 µM
[12] = second compound 10 µM, first compound 0.1 µM
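Further: spheroids exposed to compounds for 7 days before viability readout.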
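Wherever viability, T/C is given: luminescence signal used as surrogate for viable cell content; 100% = DMSO vehicle control viability.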

Question: What does the source list for `CC[C@@]1(O)C(=O)OCc2c1cc1n(c2=O)Cc2cc3c(CN(C)C)c(O)ccc3nc2-1` + COC1C(OC(N)=O)C(O)C(Oc2ccc3c(O)c(NC(=O)c4ccc(O)c(CC=C(C)C)c4)c(=O)oc3c2C)OC1(C)C?
Answer: IC50 (second compound 0.0316 µM): 94.4 nM; IC50 (second compound 0.1 µM): > 100 nM; IC50 (second compound 0.316 µM): > 100 nM; IC50 (second compound 1 µM): 91.9 nM; IC50 (second compound 3.16 µM): 95.5 nM; IC50 (second compound 10 µM): > 100 nM; viability, T/C (second compound 0.0316 µM, first compound 0.000316 µM): 100%; viability, T/C (second compound 0.0316 µM, first compound 0.001 µM): 98.3%; viability, T/C (second compound 0.0316 µM, first compound 0.00316 µM): 96.2%; viability, T/C (second compound 0.0316 µM, first compound 0.01 µM): 90%; viability, T/C [1]: 91.5%; viability, T/C [2]: 47.6%; viability, T/C (second compound 0.1 µM, first compound 0.000316 µM): 112%; viability, T/C (second compound 0.1 µM, first compound 0.001 µM): 97.6%; viability, T/C (second compound 0.1 µM, first compound 0.00316 µM): 90.8%; viability, T/C (second compound 0.1 µM, first compound 0.01 µM): 96.3%; viability, T/C [3]: 80.6%; viability, T/C [4]: 48.9%; viability, T/C (second compound 0.316 µM, first compound 0.000316 µM): 104%; viability, T/C (second compound 0.316 µM, first compound 0.001 µM): 89.3%; viability, T/C (second compound 0.316 µM, first compound 0.00316 µM): 92.9%; viability, T/C (second compound 0.316 µM, first compound 0.01 µM): 110%; viability, T/C [5]: 81.5%; viability, T/C [6]: 53.9%; viability, T/C (second compound 1 µM, first compound 0.000316 µM): 98.4%; viability, T/C (second compound 1 µM, first compound 0.001 µM): 95.3%; viability, T/C (second compound 1 µM, first compound 0.00316 µM): 92.8%; viability, T/C (second compound 1 µM, first compound 0.01 µM): 91%; viability, T/C [7]: 80.3%; viability, T/C [8]: 47.3%; viability, T/C (second compound 3.16 µM, first compound 0.000316 µM): 101%; viability, T/C (second compound 3.16 µM, first compound 0.001 µM): 97.8%; viability, T/C (second compound 3.16 µM, first compound 0.00316 µM): 92.7%; viability, T/C (second compound 3.16 µM, first compound 0.01 µM): 90.9%; viability, T/C [9]: 75.1%; viability, T/C [10]: 48.6%; viability, T/C (second compound 10 µM, first compound 0.000316 µM): 104%; viability, T/C (second compound 10 µM, first compound 0.001 µM): 100%; viability, T/C (second compound 10 µM, first compound 0.00316 µM): 91.7%; viability, T/C (second compound 10 µM, first compound 0.01 µM): 98.6%; viability, T/C [11]: 71.8%; viability, T/C [12]: 50.7%

Question: With `COc1cc2cc(C(=O)CCC(=O)O)sc2cc1OC` + COC1C(OC(N)=O)C(O)C(Oc2ccc3c(O)c(NC(=O)c4ccc(O)c(CC=C(C)C)c4)c(=O)oc3c2C)OC1(C)C as the compound, how does the IC50 (second compound 0.0316 µM) read?
Answer: Its IC50 is > 10000 nM.

Question: And the IC50 (second compound 0.1 µM)?
Answer: The IC50 was > 10000 nM.

Question: And the IC50 (second compound 0.316 µM)?
Answer: The IC50 was > 10000 nM.

Question: And the IC50 (second compound 1 µM)?
Answer: The IC50 was > 10000 nM.

Question: What about the IC50 (second compound 3.16 µM) of the same compound?
Answer: Its IC50 is > 10000 nM.

Question: And the IC50 (second compound 10 µM)?
Answer: Its IC50 is > 10000 nM.

Question: And the viability, T/C [1]?
Answer: The viability, T/C was 106%.

Question: And the viability, T/C [2]?
Answer: Its viability, T/C is 93.8%.

Question: What about the viability, T/C (second compound 0.0316 µM, first compound 0.316 µM) of the same compound?
Answer: The viability, T/C was 106%.

Question: What about the viability, T/C (second compound 0.0316 µM, first compound 1 µM) of the same compound?
Answer: Its viability, T/C is 101%.

Question: What about the viability, T/C (second compound 0.0316 µM, first compound 3.16 µM) of the same compound?
Answer: Its viability, T/C is 91.8%.

Question: What about the viability, T/C (second compound 0.0316 µM, first compound 10 µM) of the same compound?
Answer: Its viability, T/C is 94.3%.

Question: What about the viability, T/C [3] of the same compound?
Answer: Its viability, T/C is 105%.

Question: What about the viability, T/C [4] of the same compound?
Answer: The viability, T/C was 97.7%.

Question: And the viability, T/C (second compound 0.1 µM, first compound 0.316 µM)?
Answer: Its viability, T/C is 94.7%.

Question: And the viability, T/C (second compound 0.1 µM, first compound 1 µM)?
Answer: The viability, T/C was 91.7%.

Question: And the viability, T/C (second compound 0.1 µM, first compound 3.16 µM)?
Answer: Its viability, T/C is 108%.

Question: What about the viability, T/C (second compound 0.1 µM, first compound 10 µM) of the same compound?
Answer: Its viability, T/C is 102%.

Question: And the viability, T/C [5]?
Answer: The viability, T/C was 107%.

Question: What about the viability, T/C [6] of the same compound?
Answer: Its viability, T/C is 93.8%.

Question: And the viability, T/C (second compound 0.316 µM, first compound 0.316 µM)?
Answer: Its viability, T/C is 94.7%.

Question: What about the viability, T/C (second compound 0.316 µM, first compound 1 µM) of the same compound?
Answer: The viability, T/C was 89.8%.

Question: And the viability, T/C (second compound 0.316 µM, first compound 3.16 µM)?
Answer: Its viability, T/C is 97.6%.

Question: And the viability, T/C (second compound 0.316 µM, first compound 10 µM)?
Answer: The viability, T/C was 94.2%.

Question: And the viability, T/C [7]?
Answer: The viability, T/C was 108%.

Question: What about the viability, T/C [8] of the same compound?
Answer: Its viability, T/C is 87.4%.

Question: And the viability, T/C (second compound 1 µM, first compound 0.316 µM)?
Answer: Its viability, T/C is 109%.

Question: What about the viability, T/C (second compound 1 µM, first compound 1 µM) of the same compound?
Answer: The viability, T/C was 100%.

Question: What about the viability, T/C (second compound 1 µM, first compound 3.16 µM) of the same compound?
Answer: Its viability, T/C is 102%.

Question: And the viability, T/C (second compound 1 µM, first compound 10 µM)?
Answer: Its viability, T/C is 92.1%.

Question: And the viability, T/C [9]?
Answer: The viability, T/C was 103%.

Question: What about the viability, T/C [10] of the same compound?
Answer: Its viability, T/C is 104%.

Question: And the viability, T/C (second compound 3.16 µM, first compound 0.316 µM)?
Answer: Its viability, T/C is 89%.

Question: And the viability, T/C (second compound 3.16 µM, first compound 1 µM)?
Answer: Its viability, T/C is 95.1%.

Question: What about the viability, T/C (second compound 3.16 µM, first compound 3.16 µM) of the same compound?
Answer: The viability, T/C was 100%.

Question: What about the viability, T/C (second compound 3.16 µM, first compound 10 µM) of the same compound?
Answer: The viability, T/C was 98.1%.

Question: What about the viability, T/C [11] of the same compound?
Answer: The viability, T/C was 93.4%.

Question: What about the viability, T/C [12] of the same compound?
Answer: The viability, T/C was 88.2%.

Question: And the viability, T/C (second compound 10 µM, first compound 0.316 µM)?
Answer: The viability, T/C was 94.5%.

Question: What about the viability, T/C (second compound 10 µM, first compound 1 µM) of the same compound?
Answer: The viability, T/C was 97.6%.

Question: And the viability, T/C (second compound 10 µM, first compound 3.16 µM)?
Answer: The viability, T/C was 99.2%.

Question: And the viability, T/C (second compound 10 µM, first compound 10 µM)?
Answer: Its viability, T/C is 96.7%.
